Laboratory results reported in article PMC7999182, “Interaction of Remdesivir with Clinically Relevant Hepatic Drug Uptake Transporters” (Pharmaceutics, 2021).

What was measured:
OATP1B3 = target: T1, OATP1B3 (Homo sapiens, UniProt Q9NPD5); test: Inhibition of OATP1B3-mediated estradiol glucuronide uptake; type: cell-based
T1 construct: expressed in transfected cells
T1 sequence (Q9NPD5 1-702): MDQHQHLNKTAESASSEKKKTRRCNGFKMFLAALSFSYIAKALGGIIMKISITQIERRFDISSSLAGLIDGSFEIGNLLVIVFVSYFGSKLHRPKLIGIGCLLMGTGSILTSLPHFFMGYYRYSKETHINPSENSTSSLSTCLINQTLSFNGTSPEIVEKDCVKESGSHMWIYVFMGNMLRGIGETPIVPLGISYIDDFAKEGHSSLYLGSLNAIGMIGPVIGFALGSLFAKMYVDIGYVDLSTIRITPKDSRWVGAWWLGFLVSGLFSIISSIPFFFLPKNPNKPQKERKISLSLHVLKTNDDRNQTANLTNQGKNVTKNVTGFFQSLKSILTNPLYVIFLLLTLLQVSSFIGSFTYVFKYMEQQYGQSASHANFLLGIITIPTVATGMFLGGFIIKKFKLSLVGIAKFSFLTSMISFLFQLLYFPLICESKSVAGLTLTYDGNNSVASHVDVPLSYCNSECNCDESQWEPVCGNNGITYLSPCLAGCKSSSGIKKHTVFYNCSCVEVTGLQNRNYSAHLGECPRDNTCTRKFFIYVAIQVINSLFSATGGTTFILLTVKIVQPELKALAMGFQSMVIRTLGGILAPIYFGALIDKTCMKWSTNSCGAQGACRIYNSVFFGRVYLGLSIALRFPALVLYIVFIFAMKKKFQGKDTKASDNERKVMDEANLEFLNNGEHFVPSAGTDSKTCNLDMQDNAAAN
From the text: (§1) Generation, cultivation and characterization of human embryonic kidney (HEK) cells stably expressing OATP1B1 refseq (=OATP1B1*1a), OATP1B1*1b, OATP1B1*5 and OATP1B1*15 [18], OATP1B3 [19], OATP2B1 [13] and OCT1 [20] have been described previously. OATP1B1 cells were cultivated in minimal essential medium (Life Technologies, Paisley, UK) and OATP1B3, OATP2B1 and OCT1 cells were cultivated in Dulbecco’s modified Eagle medium (Sigma, Darmstadt, Germany). Cultivation media were supplemented with 10% fetal calf serum, 100 U/mL penicillin and 100 µg/mL streptomycin. Cells were grown at 37 °C and 5% CO2. Functionality of the cells was confirmed by measuring uptake of prototypic substrates (see Section 2.3 and supplementary material).
(§2) Prototypic substrate uptake was performed as described previously. For this, uptake solutions contained the respective substrate with tracer amounts of radiolabeled substrate. In case of inhibition studies, uptake solutions additionally contained different concentrations of remdesivir. […] Cells were then lysed with 0.2% sodium dodecyl sulfate and intracellular radioactivity was measured by liquid scintillation counting (Tricarb2800, PerkinElmer Life Sciences GmbH, Rodgau, Germany or Hidex 300SL TDCR liquid scintillation counter, Turku, Finland). […]

OATP1B1 = target: T2, OATP1B1 (Homo sapiens, UniProt Q9Y6L6); test: Inhibition of OATP1B1-mediated BSP uptake; type: cell-based
T2 construct: expressed in transfected cells
T2 sequence (Q9Y6L6 1-691): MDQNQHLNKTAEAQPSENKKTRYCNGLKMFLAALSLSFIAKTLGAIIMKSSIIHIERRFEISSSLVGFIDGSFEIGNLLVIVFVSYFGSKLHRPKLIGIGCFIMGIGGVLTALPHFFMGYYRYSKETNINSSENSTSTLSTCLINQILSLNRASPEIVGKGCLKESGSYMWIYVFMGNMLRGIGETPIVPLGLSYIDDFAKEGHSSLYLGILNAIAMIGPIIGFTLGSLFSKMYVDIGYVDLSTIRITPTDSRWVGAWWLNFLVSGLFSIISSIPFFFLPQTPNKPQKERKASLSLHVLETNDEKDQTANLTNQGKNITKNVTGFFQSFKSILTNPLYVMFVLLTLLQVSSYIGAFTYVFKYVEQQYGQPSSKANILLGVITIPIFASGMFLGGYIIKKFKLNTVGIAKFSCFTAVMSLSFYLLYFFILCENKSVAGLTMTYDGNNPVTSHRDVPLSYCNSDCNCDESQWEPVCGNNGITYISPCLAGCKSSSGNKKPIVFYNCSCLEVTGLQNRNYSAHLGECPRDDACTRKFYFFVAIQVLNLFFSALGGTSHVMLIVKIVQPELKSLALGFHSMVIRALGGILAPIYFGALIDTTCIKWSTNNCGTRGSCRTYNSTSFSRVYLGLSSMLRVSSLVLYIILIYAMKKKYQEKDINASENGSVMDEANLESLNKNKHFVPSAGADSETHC
From the text: as §1, §2

Structure (SMILES): CCC(CC)COC(=O)[C@H](C)N[P@](=O)(OC[C@H]1O[C@@](C#N)(c2ccc3c(N)ncnn23)[C@H](O)[C@@H]1O)Oc1ccccc1 [Remdesivir]
- Effect on prototypic substrate uptake (OATP1B3; 5 µM estradiol glucuronide, 5 min uptake, different remdesivir concentrations): significant concentration-dependent inhibitory effect
- Transporter inhibition at 10 µM (OATP1B3; 10 µM remdesivir, estradiol glucuronide as substrate): inhibition
- Effect on prototypic substrate uptake (OATP1B1; 0.05 µM BSP, 10 min uptake, different remdesivir concentrations): significant concentration-dependent inhibitory effect
- Transporter inhibition at 10 µM (OATP1B1; 10 µM remdesivir, BSP as substrate): inhibition
